Laboratory results as given in publication PMC8841757, “Direct Inhibition of GSDMD by PEITC Reduces Hepatocyte Pyroptosis and Alleviates Acute Liver Injury in Mice” (Frontiers in Immunology, 2022).

Legend:
human GSDMD WT-EGFP [1] = biological target: T1, human GSDMD WT-EGFP (Homo sapiens, UniProt P57764); experiment: microscale thermophoresis in cell lysate; format: biochemical
T1 construct: GSDMD WT fused to EGFP, transiently expressed in HEK293T cells, cell lysate (MST) or cells (CETSA)
T1 sequence (P57764 1-484): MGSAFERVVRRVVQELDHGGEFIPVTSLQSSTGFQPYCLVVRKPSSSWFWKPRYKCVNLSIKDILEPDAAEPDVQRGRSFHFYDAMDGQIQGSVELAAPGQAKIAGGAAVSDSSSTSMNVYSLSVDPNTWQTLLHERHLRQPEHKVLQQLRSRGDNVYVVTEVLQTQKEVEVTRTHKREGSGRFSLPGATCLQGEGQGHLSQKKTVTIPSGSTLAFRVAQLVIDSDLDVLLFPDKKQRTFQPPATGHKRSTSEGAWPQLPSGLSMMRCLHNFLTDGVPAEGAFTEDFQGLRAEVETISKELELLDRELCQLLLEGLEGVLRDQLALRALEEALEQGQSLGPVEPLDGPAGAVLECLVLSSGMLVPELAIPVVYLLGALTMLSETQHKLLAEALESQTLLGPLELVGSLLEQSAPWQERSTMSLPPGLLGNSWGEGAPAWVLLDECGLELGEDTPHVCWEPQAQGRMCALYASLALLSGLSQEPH

human GSDMD WT-EGFP [2] = biological target: T1, human GSDMD WT-EGFP; experiment: cellular thermal shift assay (CETSA), western blot; format: cell-based; settings: transfected HEK293T cells, 2 h
mouse GSDMD WT-EGFP = biological target: T2, mouse GSDMD WT-EGFP (Mus musculus, UniProt Q9D8T2); experiment: microscale thermophoresis in cell lysate; format: biochemical
T2 construct: GSDMD WT fused to EGFP, transiently expressed in AML12 cells, cell lysate (MST); CETSA in AML12 cells with no transfection stated
T2 sequence (Q9D8T2 1-487): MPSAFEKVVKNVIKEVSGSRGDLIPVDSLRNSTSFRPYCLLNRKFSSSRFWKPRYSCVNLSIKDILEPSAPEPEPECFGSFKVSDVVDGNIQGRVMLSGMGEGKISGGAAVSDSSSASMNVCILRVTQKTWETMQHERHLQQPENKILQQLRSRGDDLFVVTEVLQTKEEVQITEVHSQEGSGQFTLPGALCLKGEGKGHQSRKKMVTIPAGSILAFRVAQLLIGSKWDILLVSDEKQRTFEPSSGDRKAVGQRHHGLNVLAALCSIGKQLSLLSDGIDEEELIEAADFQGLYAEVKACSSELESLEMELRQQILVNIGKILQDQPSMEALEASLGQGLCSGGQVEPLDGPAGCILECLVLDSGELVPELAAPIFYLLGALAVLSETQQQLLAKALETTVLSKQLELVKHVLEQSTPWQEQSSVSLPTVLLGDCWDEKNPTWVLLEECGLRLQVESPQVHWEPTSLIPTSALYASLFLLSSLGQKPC

With COc1nccnc1NS(=O)(=O)c1ccc(NC(=O)/C=C/c2ccc([N+](=O)[O-])s2)cc1 [NSA] the Kd (human GSDMD WT-EGFP [1]) was 11200 nM and the “thermal stability (CETSA)” value (human GSDMD WT-EGFP [2]; 3 μM NSA) was “NSA enhanced the thermal stability of human WT-GSDMD”.
For S=C=NCCc1ccccc1 [PEITC], the Kd (human GSDMD WT-EGFP [1]) was 230 nM, the “thermal stability (CETSA)” value (human GSDMD WT-EGFP [2]; 3 μM PEITC) was “PEITC reduced the thermal stability of human WT-GSDMD” and the Kd (mouse GSDMD WT-EGFP) was 308 nM.
